Measurements taken from ChEMBL document CHEMBL1201862, “PubChem BioAssay data set” (2004).
Active and inactive are the calls of the source.

Assays:
Large T antigen = Large T antigen (Simian virus 40, UniProt P03070); type: functional, Betapolyomavirus macacae;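 note: Confirmatory-stage PubChem screen for compounds that inhibit SV40 T antigen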
[1] = HEp-2 cell cytotoxicity, dose response, cytotoxicity control for RSV inhibitor project, HTS (AID 2410); type: functional; conditions: human respiratory syncytial virus
Aminopeptidase N = biological target: T1, Aminopeptidase N (Plasmodium falciparum FcB1/Columbia, UniProt O96935); experiment: P. falciparum M1AAP inhibitors, biochemical, fluorogenic H-Leu-NHMec substrate, 1536-well (AID 1445); design: species or system Plasmodium falciparum 3D7, 3D7
T1 sequence (O96935 whole entry): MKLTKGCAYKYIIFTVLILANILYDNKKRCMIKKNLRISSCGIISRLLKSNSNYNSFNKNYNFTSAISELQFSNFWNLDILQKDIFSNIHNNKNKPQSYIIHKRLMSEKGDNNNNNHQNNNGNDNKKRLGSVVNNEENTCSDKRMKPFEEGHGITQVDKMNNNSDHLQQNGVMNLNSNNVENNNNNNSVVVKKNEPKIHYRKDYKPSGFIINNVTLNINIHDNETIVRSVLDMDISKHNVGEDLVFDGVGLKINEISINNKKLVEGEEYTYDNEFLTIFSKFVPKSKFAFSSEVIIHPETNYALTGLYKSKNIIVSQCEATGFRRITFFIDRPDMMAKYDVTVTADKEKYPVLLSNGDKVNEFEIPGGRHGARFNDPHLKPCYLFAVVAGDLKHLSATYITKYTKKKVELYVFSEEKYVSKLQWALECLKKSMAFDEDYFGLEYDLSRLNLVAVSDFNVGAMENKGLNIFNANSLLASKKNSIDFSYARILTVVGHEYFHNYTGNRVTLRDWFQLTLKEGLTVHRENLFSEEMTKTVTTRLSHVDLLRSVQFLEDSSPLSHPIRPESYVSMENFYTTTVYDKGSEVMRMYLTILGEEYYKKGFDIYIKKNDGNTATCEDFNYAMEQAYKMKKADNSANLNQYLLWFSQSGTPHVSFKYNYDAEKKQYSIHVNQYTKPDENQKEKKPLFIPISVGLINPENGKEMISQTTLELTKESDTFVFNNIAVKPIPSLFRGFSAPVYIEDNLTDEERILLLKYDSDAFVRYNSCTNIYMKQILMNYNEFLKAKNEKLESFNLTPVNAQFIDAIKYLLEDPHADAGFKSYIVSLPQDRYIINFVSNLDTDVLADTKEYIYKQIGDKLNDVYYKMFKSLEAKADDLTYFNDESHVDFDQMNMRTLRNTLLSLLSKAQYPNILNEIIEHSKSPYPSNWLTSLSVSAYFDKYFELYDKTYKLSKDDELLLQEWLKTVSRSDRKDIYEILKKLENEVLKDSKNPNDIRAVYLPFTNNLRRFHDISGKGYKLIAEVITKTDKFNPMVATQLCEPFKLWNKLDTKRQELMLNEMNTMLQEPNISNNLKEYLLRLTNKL

[2] = cytotoxicity in HEK-293T cells, dose response, cytotoxicity control for TCR NF-kB inhibitor project, luminescence, T-cell screen hits (AID 489026); type: functional, cell-based;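 note: cells exposed to compound about 14 hours before the viability readout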
[3] = biological target: Eukaryotic translation initiation factor 4E (Mus musculus, UniProt P63073); experiment: eIF4E–eIF4G protein interaction inhibitors, dose response, biochemical, TR-FRET (AID 855); type: functional;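 note: potency for disrupting eIF4E binding to eIF4GI seen as loss of FRET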
Eukaryotic translation initiation factor 4E, sequence (P63073 whole entry): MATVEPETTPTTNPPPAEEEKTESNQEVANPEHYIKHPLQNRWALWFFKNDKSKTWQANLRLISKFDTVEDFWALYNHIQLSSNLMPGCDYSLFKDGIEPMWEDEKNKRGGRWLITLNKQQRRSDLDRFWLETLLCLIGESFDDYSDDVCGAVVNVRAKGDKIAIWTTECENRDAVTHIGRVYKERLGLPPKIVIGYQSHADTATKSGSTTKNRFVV

cells = type: functional
Nonstructural protein 1 = Nonstructural protein 1 (Influenza A virus, UniProt Q194T2); type: functional, Influenza A virus (A/California/07/2009(H1N1))
Nonstructural protein 1, sequence (Q194T2 whole entry, the tested form may be a part): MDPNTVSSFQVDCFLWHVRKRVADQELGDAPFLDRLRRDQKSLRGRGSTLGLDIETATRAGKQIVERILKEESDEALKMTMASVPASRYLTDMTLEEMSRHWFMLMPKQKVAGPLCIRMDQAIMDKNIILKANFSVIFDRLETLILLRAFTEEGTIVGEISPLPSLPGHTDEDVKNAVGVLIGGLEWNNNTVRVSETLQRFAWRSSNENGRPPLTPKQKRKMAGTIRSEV

[4] = inhibitors of HIV Env-driven cell fusion, dose response, cherry-pick (AID 652057); type: functional, cell-based
[5] = inhibitors of clade B AD8 Env fusion, dose response, cell-based, cherry-pick (AID 652062); type: functional;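 note: luciferase signal from cell-cell fusion driven by HIV-1 clade B AD8 Env; potency is for inhibitors of fusion seen as a drop in luminescence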
[6] = biological target: T2, Carboxy-terminal domain RNA polymerase II polypeptide A small phosphatase 1 (Homo sapiens, UniProt Q9GZU7); experiment: inhibitors of CTDSP1, concentration-response testing, biochemical assay, absorbance-based, actives from ultra-high-throughput screening (AID 540297); type: functional
T2 sequence (Q9GZU7 whole entry): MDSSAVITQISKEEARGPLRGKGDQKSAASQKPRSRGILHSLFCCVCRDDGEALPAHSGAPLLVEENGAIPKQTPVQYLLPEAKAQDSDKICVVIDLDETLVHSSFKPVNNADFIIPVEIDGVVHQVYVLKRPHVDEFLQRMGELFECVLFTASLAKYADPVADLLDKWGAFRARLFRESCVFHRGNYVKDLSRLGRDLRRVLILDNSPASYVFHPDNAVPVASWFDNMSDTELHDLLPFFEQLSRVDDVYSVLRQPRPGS

[7] = biological target: DNA dC->dU-editing enzyme APOBEC-3G (Homo sapiens, UniProt Q9HC16); experiment: Dose Response confirmation of small molecule APOBEC3G DNA Deaminase Inhibitors via a fluorescence-based single-stranded DNA deaminase assay. [Related pubchem assays (depositor defined):AID493012, AID493028]; type: functional
DNA dC->dU-editing enzyme APOBEC-3G, sequence (Q9HC16 whole entry): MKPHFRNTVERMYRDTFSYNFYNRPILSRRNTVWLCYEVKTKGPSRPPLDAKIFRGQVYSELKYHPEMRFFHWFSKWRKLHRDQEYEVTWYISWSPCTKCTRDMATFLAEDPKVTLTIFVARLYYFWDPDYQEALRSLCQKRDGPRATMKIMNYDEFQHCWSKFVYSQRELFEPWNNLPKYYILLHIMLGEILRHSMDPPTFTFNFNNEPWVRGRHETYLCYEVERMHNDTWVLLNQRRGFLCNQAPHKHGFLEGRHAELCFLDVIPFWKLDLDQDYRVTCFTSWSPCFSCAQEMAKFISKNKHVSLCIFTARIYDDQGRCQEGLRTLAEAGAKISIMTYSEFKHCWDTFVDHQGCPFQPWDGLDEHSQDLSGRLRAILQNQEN

[8] = cytotoxicity toward NIH3T3 fibroblasts, dose response, counter-screen, cell-based, ATP luminescence, mouse fibroblasts (AID 2010); type: functional;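 note: cells exposed to compound for about 90 hours before reading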
[9] = A Cell Based Secondary Assay To Explore Cytotoxicity of Compounds that Sensitize Mycobacterium Tuberculosis to Beta-Lactam Antibiotics.; type: functional
[10] = biological target: T3, Microphthalmia-associated transcription factor (Homo sapiens, UniProt O75030); experiment: TRPM1 promoter luciferase signal decrease, dose response, MITF inhibitor project, cell-based, SK-MEL-5, cherry-picked, set 3 (AID 493073); type: functional
T3 sequence (O75030 whole entry): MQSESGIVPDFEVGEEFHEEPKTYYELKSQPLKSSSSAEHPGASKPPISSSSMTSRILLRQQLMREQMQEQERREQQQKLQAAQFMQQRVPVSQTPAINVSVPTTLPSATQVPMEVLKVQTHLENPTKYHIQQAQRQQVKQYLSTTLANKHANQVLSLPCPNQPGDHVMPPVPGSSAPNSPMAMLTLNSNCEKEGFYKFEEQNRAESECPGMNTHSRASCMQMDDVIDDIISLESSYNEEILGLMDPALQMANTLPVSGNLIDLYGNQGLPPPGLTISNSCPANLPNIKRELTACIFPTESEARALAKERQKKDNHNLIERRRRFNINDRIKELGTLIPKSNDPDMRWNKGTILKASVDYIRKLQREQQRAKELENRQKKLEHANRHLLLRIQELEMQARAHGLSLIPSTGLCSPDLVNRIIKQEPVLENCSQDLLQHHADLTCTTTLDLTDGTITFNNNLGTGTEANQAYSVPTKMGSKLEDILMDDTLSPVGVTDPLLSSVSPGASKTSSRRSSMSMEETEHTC

[11] = inhibitors of intracellular T. cruzi replication, confirmation, NIH3T3 host cells, beta-gal luminescence (AID 2044); type: functional, cell-based;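 note: intracellular parasites grown in NIH/3T3 mouse fibroblasts as host cells; luminescent beta-galactosidase reporter signal from transgenic T. cruzi replicating inside host cells; inhibitors lower the luminescence signal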

Large T antigen, sequence (P03070 whole entry): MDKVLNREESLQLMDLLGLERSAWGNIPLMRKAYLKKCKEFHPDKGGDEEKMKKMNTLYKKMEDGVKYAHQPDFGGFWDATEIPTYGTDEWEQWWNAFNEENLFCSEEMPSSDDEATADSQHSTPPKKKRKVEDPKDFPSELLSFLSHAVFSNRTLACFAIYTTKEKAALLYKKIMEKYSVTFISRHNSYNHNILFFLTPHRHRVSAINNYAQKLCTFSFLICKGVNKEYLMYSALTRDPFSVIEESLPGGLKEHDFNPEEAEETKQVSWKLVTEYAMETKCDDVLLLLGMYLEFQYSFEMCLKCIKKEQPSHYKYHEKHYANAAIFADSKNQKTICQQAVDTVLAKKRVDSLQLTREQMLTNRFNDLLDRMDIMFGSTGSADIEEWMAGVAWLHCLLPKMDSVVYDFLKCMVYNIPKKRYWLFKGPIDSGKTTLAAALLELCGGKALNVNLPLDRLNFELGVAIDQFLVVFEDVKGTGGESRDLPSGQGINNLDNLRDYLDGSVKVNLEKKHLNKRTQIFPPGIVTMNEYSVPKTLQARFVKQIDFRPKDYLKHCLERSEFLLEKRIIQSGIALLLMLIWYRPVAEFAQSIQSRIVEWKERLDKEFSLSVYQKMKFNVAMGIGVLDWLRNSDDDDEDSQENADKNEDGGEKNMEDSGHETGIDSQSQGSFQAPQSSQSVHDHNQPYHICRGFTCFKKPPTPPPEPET

For `CCOc1cc(NS(=O)(=O)c2ccc(NC(C)=O)cc2)c(OCC)cc1NC(=O)c1cccs1`, the IC50 (Large T antigen) was 24 µM (active).
For `O=c1cc(CN2CCN(c3ccc(O)cc3)CC2)nc2scc(-c3ccccc3)n12`, the IC50 (Large T antigen) was 10.5 µM (active).
For `Cc1ccc2nc(NS(C)(=O)=O)sc2c1`, the CC50 [1] was 23 µM (active).
For `CN(C(=O)c1ccccc1OCc1ccc(Cl)cc1)c1ccccc1`, the CC50 [1] was 25.7 µM (active).
For `COc1cc(NS(=O)(=O)c2ccc(NC(=S)NC(=O)c3cccs3)cc2)nc(OC)n1`, the IC50 (Aminopeptidase N) was 38.9 µM (active).
With `CN1/C(=C\C(=O)c2cccnc2)Sc2ccccc21` the CC50 [1] was 26.5 µM (active).
For `O=[N+]([O-])c1ccc(Sc2ccc(Cl)c(Cl)c2)nc1`, the IC50 [2] was > 80 µM (inactive).
With `CCn1c(CNC(=O)c2cccs2)nnc1SCC(=O)NCCc1ccccc1` the IC50 (Aminopeptidase N) was 90 µM (active).
For `COc1ccc(C(=O)CN2C(=O)NC(C)(c3ccc(C)cc3)C2=O)cc1OC` (stereo not given), the IC50 [3] was > 64 µM (inactive).
For `Cc1cccc(NC(=O)c2ccc(OC3CSC3)cc2)c1`, the IC50 (cells) was 44 µM (active).
In the case of `Cc1ccc2cc(CCNS(=O)(=O)c3ccc(Br)cc3)c(O)nc2c1C`, the CC50 [1] was 22.1 µM (active).
In the case of `CN1CCN(C(=S)SCC(=O)Nc2ccc(Cl)cc2C(=O)c2ccccc2)CC1`, the IC50 (Nonstructural protein 1) was > 100 µM (active).
For `Cc1ccc(S(=O)(=O)NNC2=NS(=O)(=O)c3ccccc32)c(C)c1`, the IC50 (Aminopeptidase N) was 9.97 µM (active).
For `CCCCc1nc(NCCNC(=O)c2ccco2)c(C#N)c2c1CSC(C)(C)C2`, the IC50 (Aminopeptidase N) was 85.3 µM (active).
In the case of `COc1ccc(OC2C(=O)N(Cc3ccc4c(c3)OCO4)C2c2cccs2)cc1` (stereo not given), the AC50 [4] was 53.1 µM (active) and the AC50 [5] was 1.71 µM (active).
For `CCN(CC)c1ccc(S(=O)(=O)N(CC)CC)cc1NC(=O)c1cccnc1`, the IC50 (Aminopeptidase N) was 28.5 µM (active).
With `CCN(CC)S(=O)(=O)c1ccc(OC)c(NC(=O)Cc2cccs2)c1` the IC50 [3] was 50 µM (inactive) and the IC50 [6] was 4.5 µM (active).
With `N#C/C(=C\c1ccc(OC(=O)c2ccc(Br)s2)cc1)c1nc2ccccc2[nH]1` the IC50 [3] was > 64 µM (inactive) and the IC50 [6] was 1.78 µM (active).
In the case of `CC1CCN(c2c(NCC3CCC(C(=O)NCCc4ccc(Cl)cc4)CC3)c(=O)c2=O)CC1` (stereo not given), the CC50 [1] was > 50 µM (active).
In the case of `O=C1CCC(C(=O)Nc2cccc(S(=O)(=O)Nc3ccccc3F)c2)=NN1`, the IC50 [7] was 24.6 µM (active).
With `C[C@H](NC(=O)c1ccccc1)C(=O)Nc1nc(-c2ccccn2)cs1` the IC50 (Nonstructural protein 1) was 16.3 µM (active).
For `Cc1ccc(S(=O)(=O)N(C)C[C@@H]2Oc3ccc(NC(=O)Cn4cnnn4)cc3CC(=O)N([C@H](C)CO)C[C@@H]2C)cc1`, the AC50 [4] was 2.96 µM (active) and the AC50 [5] was 7.7 µM (active).
For `C[C@H]1CN([C@@H](C)CO)C(=O)c2ccccc2-c2ccccc2CO[C@H]1CN(C)S(=O)(=O)c1cccc(C#N)c1`, the AC50 [4] was < 0.26 µM (active) and the AC50 [5] was 0.743 µM (active).
With `CCOC(=O)C(C)Oc1cccc2c(=O)n(CC(=O)NCc3ccco3)ccc12` (stereo not given) the IC50 [2] was > 80 µM (inactive).
For `O=C(N/N=C/c1ccc([N+](=O)[O-])o1)c1ccccc1-n1cccc1`, the EC50 [8] was > 60 µM (not active), the CC50 [9] was 32.1 µM (active) and the AC50 [10] was 17.1 µM (active). For the same molecule, the EC50 [11] was 0.137 µM (active).
For `O=[N+]([O-])c1cc(/C=N/N=C(/Nc2ccccn2)c2ccccn2)ccc1O`, the IC50 (Nonstructural protein 1) was 2.46 µM (active).
With `COc1ccccc1-c1noc(-c2ccccc2)n1` the IC50 [3] was > 64 µM (inactive).
